From patent publication EP1680415B1, “PYRROLIDINYL UREA DERIVATIVES AS ANGIOGENESIS INHIBITORS” (ABBOTT LABORATORIES, priority 2003, dated 2005) come the findings set out here.

The assay concerns HMVEC. In words: human microvascular endothelial (HMVEC) migration assay. The class given is cell-based. Particulars: Inhibition of HMVEC migration; 0.1 nM; activators 15 ng/mL bFGF/VEGF; 4 hours at 37 °C; compared to a positive control. In outline: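 Dermal (single-donor) and neonatal microvascular endothelial cells, serum-starved overnight in DME/0.01% BSA, attached 2 h at 37 °C to gelatin-coated 5 µm membranes in a modified Boyden chamber. Test substances with 15 ng/mL bFGF/VEGF added; migration over 4 h at 37 °C. Stained migrated cells counted per high-power field, background subtracted, or given as % inhibition versus positive control.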

For “N-{(3R)-1-[(6-methyl-3-pyridinyl)carbonyl]-3-pyrrolidinyl}-N'-[2-(2-thienyl)ethyl]urea [Example 28]”, the “% Inhibition @ 0.1 nM” value turned out to be 86%.
